The text below walks through data of patent publication US20230116972A1, “CD38 MODULATORS AND METHODS OF USE THEREOF” (Cytokinetics, Inc., priority 2021, published 2023).

Like-named read-outs stand apart in the source and are kept apart here.

Holding throughout (assay): direct inhibition of CYP450 in human liver microsomes
What all share (assay type): in vitro ADME
A general note: Liver microsomes are vesicles of endoplasmic reticulum, rich in cytochrome P450 enzymes.

For series [1], the target named is T1, CYP1A2 (Homo sapiens, UniProt P05177).
T1 construct: from tissue; host or cells: human liver microsomes (pooled in the time-dependent assay)
T1 sequence (P05177 1-516): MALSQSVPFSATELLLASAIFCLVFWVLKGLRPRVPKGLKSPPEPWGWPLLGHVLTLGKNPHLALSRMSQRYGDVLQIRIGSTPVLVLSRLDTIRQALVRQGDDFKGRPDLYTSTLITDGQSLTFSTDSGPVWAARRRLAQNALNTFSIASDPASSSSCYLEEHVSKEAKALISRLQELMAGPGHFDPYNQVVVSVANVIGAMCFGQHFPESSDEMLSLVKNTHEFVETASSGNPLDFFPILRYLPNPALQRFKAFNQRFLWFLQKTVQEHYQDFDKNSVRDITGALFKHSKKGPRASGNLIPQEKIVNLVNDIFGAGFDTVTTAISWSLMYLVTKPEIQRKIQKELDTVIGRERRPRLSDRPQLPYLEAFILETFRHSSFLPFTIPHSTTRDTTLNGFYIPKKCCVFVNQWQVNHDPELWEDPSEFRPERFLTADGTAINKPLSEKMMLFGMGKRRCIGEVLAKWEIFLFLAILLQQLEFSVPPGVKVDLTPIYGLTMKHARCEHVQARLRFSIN
The procedure: (§1) Direct inhibition: […] A Perspective of the Pharmaceutical Research and Manufacturers of America”, Drug Metabolism and Disposition, 37 (7): 1355, 2009). For 3A4, the % activity was measured using both midazolam and testosterone as probes. Each compound at 3, 10, and 50 μM was incubated with HLM, NADPH and CYP isoenzyme specific probe substrates at 37° C. Inhibition of the probe substrate metabolism was quantified using LC/MS/MS. […] Known chemical inhibitors specific for the individual CYP isoenzymes were evaluated in parallel as positive controls and these compounds produced CYP inhibition consistent with published results (Walsky & Obach RS. “Validated assays for human cytochrome P450 activities”. Drug Metab Dispos. 32(6):647-60, 2004). Note that, in Tables 6 and 7, the “Compound No” corresponds to the compound numbers in Table 1.

In series [2] the target is T2, CYP2B6 (Homo sapiens, UniProt P20813).
T2 construct: from tissue; host or cells: human liver microsomes (pooled in the time-dependent assay)
T2 sequence (P20813 1-491): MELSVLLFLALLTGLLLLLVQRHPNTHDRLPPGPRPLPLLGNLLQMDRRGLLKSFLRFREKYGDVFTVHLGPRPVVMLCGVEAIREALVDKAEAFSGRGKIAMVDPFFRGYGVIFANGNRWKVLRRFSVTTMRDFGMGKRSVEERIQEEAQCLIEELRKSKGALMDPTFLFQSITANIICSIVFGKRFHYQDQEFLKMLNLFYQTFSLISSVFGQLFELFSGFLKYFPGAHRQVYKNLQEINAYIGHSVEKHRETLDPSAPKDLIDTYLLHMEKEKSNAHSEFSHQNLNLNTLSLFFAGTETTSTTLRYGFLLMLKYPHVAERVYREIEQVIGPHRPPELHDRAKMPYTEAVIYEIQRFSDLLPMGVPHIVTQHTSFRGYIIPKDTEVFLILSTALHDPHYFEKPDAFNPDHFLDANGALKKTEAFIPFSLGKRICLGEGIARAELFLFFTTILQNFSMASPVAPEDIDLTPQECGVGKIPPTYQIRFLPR
The conditions noted are these: for activity at 3 µM / activity at 10 µM / activity at 50 µM: % of non-inhibited control, read-out: CYP2B6 T0 % activity; for IC50: estimated from 3, 10, 50 uM, read-out: CYP2B6 T0 estimated IC50. How it is done:
as §1

Series [3] has as its target T3, CYP2C19 (Homo sapiens, UniProt P33261).
T3 construct: from tissue; host or cells: human liver microsomes (pooled in the time-dependent assay)
The conditions noted are these: for activity at 3 µM / activity at 10 µM / activity at 50 µM: % of non-inhibited control, read-out: CYP2C19 T0 % activity; for IC50: estimated from 3, 10, 50 uM, read-out: CYP2C19 T0 estimated IC50. How it is done: as §1

The target in series [4] is T4, CYP2D6 (Homo sapiens, UniProt P10635).
T4 construct: from tissue; host or cells: human liver microsomes (pooled in the time-dependent assay)
T4 sequence (P10635 whole entry): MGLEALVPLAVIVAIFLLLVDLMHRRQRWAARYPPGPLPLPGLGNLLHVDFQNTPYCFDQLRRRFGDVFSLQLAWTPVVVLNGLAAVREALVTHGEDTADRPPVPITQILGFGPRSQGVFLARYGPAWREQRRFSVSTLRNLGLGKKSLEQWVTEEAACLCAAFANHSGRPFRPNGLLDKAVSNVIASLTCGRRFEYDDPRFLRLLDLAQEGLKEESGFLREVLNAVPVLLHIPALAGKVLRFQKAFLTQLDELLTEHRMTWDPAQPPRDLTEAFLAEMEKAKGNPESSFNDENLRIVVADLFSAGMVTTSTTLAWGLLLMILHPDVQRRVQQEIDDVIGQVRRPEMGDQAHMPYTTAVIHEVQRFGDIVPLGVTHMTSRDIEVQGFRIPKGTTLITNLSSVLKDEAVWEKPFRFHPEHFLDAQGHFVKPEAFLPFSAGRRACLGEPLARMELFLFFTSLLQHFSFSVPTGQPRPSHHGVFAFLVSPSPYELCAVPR
The conditions noted are these: for activity at 3 µM / activity at 10 µM / activity at 50 µM: % of non-inhibited control, read-out: CYP2D6 T0 % activity; for IC50: estimated from 3, 10, 50 uM, read-out: CYP2D6 T0 estimated IC50. The procedure:
as §1

Where [5] appears, read: 3 uM, human liver microsomes, % of non-inhibited control, read-out: CYP1A2 T0 % activity.
The mark [6] stands for this setting: 10 uM, human liver microsomes, % of non-inhibited control, read-out: CYP1A2 T0 % activity.
[7] abbreviates: 50 uM, human liver microsomes, % of non-inhibited control, read-out: CYP1A2 T0 % activity.
[8] abbreviates: human liver microsomes, estimated from 3, 10, 50 uM, read-out: CYP1A2 T0 estimated IC50.

T3 sequence (P33261 whole entry): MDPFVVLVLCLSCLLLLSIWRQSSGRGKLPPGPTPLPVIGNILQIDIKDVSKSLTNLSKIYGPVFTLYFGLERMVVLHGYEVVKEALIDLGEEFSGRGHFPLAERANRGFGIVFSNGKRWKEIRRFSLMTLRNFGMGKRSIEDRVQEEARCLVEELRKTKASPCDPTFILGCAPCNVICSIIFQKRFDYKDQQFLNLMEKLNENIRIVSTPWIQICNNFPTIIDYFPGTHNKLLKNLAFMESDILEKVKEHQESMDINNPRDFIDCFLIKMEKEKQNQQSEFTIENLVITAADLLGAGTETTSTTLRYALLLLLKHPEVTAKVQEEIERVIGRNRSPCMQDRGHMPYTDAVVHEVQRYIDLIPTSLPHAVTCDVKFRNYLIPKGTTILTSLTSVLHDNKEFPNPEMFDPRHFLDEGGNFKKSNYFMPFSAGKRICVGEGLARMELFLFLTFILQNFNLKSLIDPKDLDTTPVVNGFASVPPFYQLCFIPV

Consider `CO[C@H]1CC[C@H](NC(=O)c2cc(C3CCOCC3)nc(-c3cncn3C)n2)CC1` [Compound 199, N-((1r,4r)-4-methoxycyclohexyl)-2-(1-methyl-1H-imidazol-5-yl)-6-(tetrahydro-2H-pyran-4-yl)pyrimidine-4-carboxamide], for which the figures for the activity at 3 µM in series [1] (setting [5]), in series [2] and in series [3] were 96%, 95% and 92%, respectively. The activity at 10 µM in series [1] (setting [6]) was 96%; in series [2] it was 80%; in series [3], 85%. For the same compound, the figures for the activity at 50 µM in series [1] (setting [7]), in series [2] and in series [3] were 85%, 53% and 39%, respectively. The figures for the IC50 in series [1] (setting [8]), in series [2] and in series [3] were over 50 µM, over 50 µM and under 50 µM, respectively.
Take `CO[C@H]1CC[C@H](NC(=O)c2cc(C3(C)COC3)nc(-c3cncn3C)n2)CC1` [Compound 295, N-((1r,4r)-4-methoxycyclohexyl)-2-(1-methyl-1H-imidazol-5-yl)-6-(3-methyloxetan-3-yl)pyrimidine-4-carboxamide]: the activity at 3 µM in series [1] (setting [5]) was found to be 101%; in series [2], 96%; in series [4] it was 95%; in series [3], 108%. Further, the activity at 10 µM in series [1] (setting [6]) came to 98%; in series [2], 91%; in series [4] it was 79%; in series [3], 100%. In addition, the activity at 50 µM is 97% in series [1] (setting [7]), 79% in series [2], 36% in series [4] and 79% in series [3]. Further, the IC50 is over 50 µM in series [1] (setting [8]), over 50 µM in series [2], under 50 µM in series [4] and over 50 µM in series [3].
Consider `Cn1cncc1-c1ccnc(C(=O)N[C@H]2CC[C@H](O)CC2)n1` [Compound 256, N-((1r,4r)-4-hydroxycyclohexyl)-4-(1-methyl-1H-imidazol-5-yl)pyrimidine-2-carboxamide], for which the activity at 3 µM was 94% in series [1] (setting [5]), 103% in series [2], 89% in series [4] and 97% in series [3]. The activity at 10 µM in series [1] (setting [6]) worked out at 92%; in series [2] it was 101%; in series [4], 87%; in series [3] it was 96%. In addition, the activity at 50 µM in series [1] (setting [7]) was 78%; in series [2], 91%; in series [4], 56%; in series [3], 88%. Further, the IC50 in series [1] (setting [8]), in series [2], in series [4] and in series [3] was over 50 µM each time.
Turning to `CO[C@H]1CC[C@H](NC(=O)c2cc(C3CCC(F)(F)CC3)nc(-c3cncn3C)n2)CC1` [Compound 289, 6-(4,4-difluorocyclohexyl)-N-((1r,4r)-4-methoxycyclohexyl)-2-(1-methyl-1H-imidazol-5-yl)pyrimidine-4-carboxamide], the activity at 3 µM in series [1] (setting [5]) was 100%; in series [2], 98%; in series [4], 98%; in series [3], 83%. Also, the activity at 10 µM in series [1] (setting [6]) was found to be 95%; in series [2], 95%; in series [4], 98%; in series [3] it was 63%. Further, the activity at 50 µM was 81% in series [1] (setting [7]), 79% in series [2], 64% in series [4] and 23% in series [3]. Besides, the IC50 was over 50 µM in series [1] (setting [8]), over 50 µM in series [2], over 50 µM in series [4] and under 50 µM in series [3].
Turning to `Cn1cncc1-c1ccnc(C(=O)Nc2ccc(C(C)(C)O)nc2)n1` [Compound 250, N-(6-(2-hydroxypropan-2-yl)pyridin-3-yl)-4-(1-methyl-1H-imidazol-5-yl)pyrimidine-2-carboxamide], the IC50 was under 50 µM in series [1], over 50 µM in series [2], under 50 µM in series [4] and over 50 µM in series [3]. The activity at 3 µM in series [1] (human, microsomes) was 88%; in series [2], 101%; in series [4] it was 103%; in series [3], 88%. The activity at 10 µM in series [1] (human, microsomes) is 69%; in series [2] it was 99%; in series [4], 86%; in series [3], 88%. Also, the activity at 50 µM in series [1] (human, microsomes) is 34%; in series [2], 89%; in series [4] it was 47%; in series [3] it was 66%.
In the case of `CC(C)(O)c1ccc(NC(=O)c2nccc(-n3ccnc3)n2)cn1` [Compound 249, N-(6-(2-hydroxypropan-2-yl)pyridin-3-yl)-4-(1H-imidazol-1-yl)pyrimidine-2-carboxamide], the IC50 in series [1], in series [2], in series [4] and in series [3] was over 50 µM each time. Besides, the activity at 3 µM came to 99% in series [1] (human, microsomes); 98% in series [2]; 104% in series [4]; 95% in series [3]. The activity at 10 µM is 93% in series [1] (human, microsomes); 98% in series [2]; 103% in series [4]; 96% in series [3]. In addition, the activity at 50 µM in series [1] (human, microsomes) is 81%; in series [2], 92%; in series [4] it was 87%; in series [3] it was 74%.

In general, IC50 refers to the concentration that gives 50% inhibition.
